Tests used:
Settings in all cases: 72 h
U2OS [1] = test: drug sensitivity score (DSS) for viability; higher = more toxic; extreme values may be limits of the assay
Caco-2 [2] = test: as above
Vero E6 [3] = test: as above
Calu-3 [4] = test: as above
HepG2 [5] = test: as above
U2OS [6] = test: relative viability EC50 (midpoint between 100% and the lowest measured viability); higher = less toxic
Caco-2 [7] = test: as above
Vero E6 [8] = test: as above
Calu-3 [9] = test: as above
HepG2 [10] = test: as above
U2OS [11] = test: cell viability relative to DMSO; higher = less toxic
Caco-2 [12] = test: as above
Vero E6 [13] = test: as above
Calu-3 [14] = test: as above
HepG2 [15] = test: as above

| Compound | drug sensitivity score (U2OS [1]) | drug sensitivity score (Caco-2 [2]) | drug sensitivity score (Vero E6 [3]) | drug sensitivity score (Calu-3 [4]) | drug sensitivity score (HepG2 [5]) | relative viability EC50 (U2OS [6]) [µM] | relative viability EC50 (Caco-2 [7]) [µM] | relative viability EC50 (Vero E6 [8]) [µM] | relative viability EC50 (Calu-3 [9]) [µM] | relative viability EC50 (HepG2 [10]) [µM] | cell viability (U2OS [11]; 1 nM) [%] | cell viability (U2OS [11]; 10 nM) [%] | cell viability (U2OS [11]; 100 nM) [%] | cell viability (U2OS [11]; 1000 nM) [%] | cell viability (U2OS [11]; 10000 nM) [%] | cell viability (Caco-2 [12]; 1 nM) [%] | cell viability (Caco-2 [12]; 10 nM) [%] | cell viability (Caco-2 [12]; 100 nM) [%] | cell viability (Caco-2 [12]; 1000 nM) [%] | cell viability (Caco-2 [12]; 10000 nM) [%] | cell viability (Vero E6 [13]; 1 nM) [%] | cell viability (Vero E6 [13]; 10 nM) [%] | cell viability (Vero E6 [13]; 100 nM) [%] | cell viability (Vero E6 [13]; 1000 nM) [%] | cell viability (Vero E6 [13]; 10000 nM) [%] | cell viability (Calu-3 [14]; 1 nM) [%] | cell viability (Calu-3 [14]; 10 nM) [%] | cell viability (Calu-3 [14]; 100 nM) [%] | cell viability (Calu-3 [14]; 1000 nM) [%] | cell viability (Calu-3 [14]; 10000 nM) [%] | cell viability (HepG2 [15]; 1 nM) [%] | cell viability (HepG2 [15]; 10 nM) [%] | cell viability (HepG2 [15]; 100 nM) [%] | cell viability (HepG2 [15]; 1000 nM) [%] | cell viability (HepG2 [15]; 10000 nM) [%] |
| --- | --- | --- | --- | --- | --- | --- | --- | --- | --- | --- | --- | --- | --- | --- | --- | --- | --- | --- | --- | --- | --- | --- | --- | --- | --- | --- | --- | --- | --- | --- | --- | --- | --- | --- | --- |
| C(=C\c1ccccc1)/CN1CCN(CCOC(c2ccccc2)c2ccccc2)CC1 | 0 | 0.6 | 0 | 0 | 0 | > 10 | > 10 | > 10 | > 10 | > 10 | 99.1 | 95.5 | 95.8 | 103 | 100 | 102 | 87.5 | 101 | 99.1 | 80.5 | 98 | 97 | 95.8 | 91.7 | 91.6 | 113 | 99.3 | 98.5 | 92 | 98.8 | 92.7 | 97.3 | 91.3 | 90.4 | 95.4 |
| CC(C)c1cc(C(=O)N2Cc3ccc(CN4CCN(C)CC4)cc3C2)c(O)cc1O | 18.8 | 13.1 | 11 | 13.3 | 26 | 0.232 | 0.174 | 0.492 | 0.145 | 0.068 | 101 | 102 | 85.3 | 8.1 | 3.4 | 98.5 | 94.8 | 85.8 | 40 | 39.1 | 104 | 104 | 101 | 40.4 | 30.7 | 101 | 96.4 | 77.8 | 41.7 | 38.9 | 108 | 103 | 28.4 | 1.5 | 1.2 |
| CN(C)CCOc1ccc(-c2nc(-c3ccncc3)c(-c3ccc4c(c3)CC/C4=N\O)[nH]2)cc1 | 0 | 0 | 0 | 0 | 12.6 | > 10 | > 10 | > 10 | > 10 | 0.748 | 93 | 108 | 99.6 | 116 | 114 | 106 | 103 | 99.1 | 101 | 98.6 | 102 | 98.5 | 105 | 112 | 113 | 99.6 | 94.5 | 114 | 115 | 117 | 110 | 102 | 96.8 | 39.8 | 3.5 |
| CNC(=O)c1nn(C)c2c1C(C)(C)Cc1cnc(Nc3ccc(N4CCN(C)CC4)cc3)nc1-2 | 11.6 | 10.2 | 14.8 | 7.9 | 14.5 | 0.898 | 0.518 | 0.409 | 1.2 | 0.288 | 99.7 | 93.6 | 97.3 | 47.4 | 3.6 | 98.1 | 92.2 | 90.3 | 53 | 28.9 | 91.9 | 96.1 | 85 | 31.2 | 6.4 | 95.1 | 100 | 89 | 67.9 | 22.1 | 89.9 | 102 | 75.7 | 37.7 | 16.5 |
| COc1cc2c(cc1C(F)(F)F)N(C(=O)Nc1cc(F)cc(-c3cccnc3)c1)CC2 | 0 | 0 | 0 | 0 | 0 | > 10 | > 10 | > 10 | > 10 | > 10 | 100 | 105 | 97.4 | 103 | 95.9 | 96.8 | 104 | 89.8 | 99 | 98.6 | 96.9 | 96.1 | 99.4 | 99.9 | 95.1 | 102 | 91.7 | 92.9 | 101 | 93.9 | 99.5 | 90.9 | 103 | 96.4 | 113 |
| Nc1ncnc2c1c(COc1cccc(Cl)c1)nn2C1CCOCC1 | 0 | 0 | 0 | 0.6 | 0 | > 10 | > 10 | > 10 | > 10 | > 10 | 92.5 | 98.1 | 94.9 | 96.9 | 96.4 | 89.2 | 99.2 | 99.7 | 100 | 91.3 | 96.5 | 96.5 | 97.6 | 89.3 | 112 | 95.4 | 104 | 95.3 | 97.2 | 84.2 | 91.3 | 89.1 | 109 | 91.8 | 99.4 |
| O=C(NO)c1cnc(N2CCN(S(=O)(=O)c3ccc4ccccc4c3)CC2)nc1 | 9.4 | 11.2 | 8.8 | 7.7 | 8.9 | 1.4 | 0.894 | 1.71 | 1.34 | 1.29 | 97.9 | 98.4 | 94.5 | 69.3 | 4.2 | 104 | 128 | 84.7 | 51.8 | 4.3 | 102 | 97.5 | 100 | 79.2 | -0.1 | 107 | 103 | 98.9 | 75.5 | 24.1 | 107 | 96.8 | 91.5 | 65.6 | 11.7 |
| O=C(Nc1c(-c2cccs2)nc2ccccn12)c1ccc(Cl)cc1 | 0 | 0 | 0 | 0 | 0 | > 10 | > 10 | > 10 | > 10 | > 10 | 104 | 96.7 | 103 | 99.3 | 103 | 99 | 95 | 104 | 97.5 | 102 | 96.7 | 103 | 96.6 | 95.1 | 92.9 | 106 | 104 | 103 | 86.9 | 107 | 98.9 | 95.3 | 99 | 101 | 91.4 |
| O=C(O)[C@H](Cc1ccccc1)NCc1ccc(Cl)cc1 | 0 | 0 | 0 | 0 | 0 | > 10 | > 10 | > 10 | > 10 | > 10 | 95.2 | 98.7 | 91 | 98.3 | 94.5 | 107 | 99.6 | 106 | 101 | 102 | 99.8 | 102 | 92.9 | 99.4 | 101 | 92.8 | 91.5 | 93.8 | 98 | 92.5 | 95.6 | 101 | 97.1 | 93.3 | 103 |
| O=C(O)c1ccc2c(c1)C(=O)N(c1cccc(Oc3ccc([N+](=O)[O-])cc3)c1)C2=O | 0 | 0 | 0 | 0 | 0 | > 10 | > 10 | > 10 | > 10 | > 10 | 95.5 | 99 | 94.6 | 99 | 94.3 | 92.5 | 102 | 98 | 94.7 | 100 | 94.1 | 99.7 | 98.7 | 90.1 | 100 | 94.8 | 96.5 | 104 | 96.8 | 99 | 104 | 94.8 | 95.5 | 92.9 | 103 |
| O=C(c1c2ccccc2cc2ccccc12)N1CCC(N2CCC[C@@H](C(=O)N3CCOCC3)C2)CC1 | 0 | 0 | 0 | 0 | 1.1 | > 10 | > 10 | > 10 | > 10 | > 10 | 92.7 | 98.9 | 102 | 103 | 101 | 84.6 | 100 | 87.3 | 94.3 | 87.2 | 97.9 | 93.4 | 93.8 | 89.7 | 99.8 | 100 | 99.8 | 105 | 113 | 117 | 93.7 | 93.2 | 96.9 | 85.3 | 82.3 |
| Oc1ccc(-c2nc3cc(O)cc(Br)c3o2)cc1 | 0 | 0 | 0 | 0 | 0 | > 10 | > 10 | > 10 | > 10 | > 10 | 99.1 | 105 | 96.9 | 109 | 100 | 100 | 112 | 102 | 98.3 | 92.1 | 110 | 95.6 | 110 | 101 | 98.9 | 110 | 99.1 | 93.8 | 96.9 | 89.1 | 107 | 102 | 104 | 102 | 95.3 |
| O=C(O)CC/C=C\C[C@@H]1CO[C@H](c2ccccc2Cl)O[C@@H]1c1ccccc1O (racemic) | 0 | 0 | 0 | 0 | 0 | > 10 | > 10 | > 10 | > 10 | > 10 | 96.6 | 95 | 97.4 | 95.5 | 99.2 | 91.4 | 90.3 | 105 | 96.9 | 92.6 | 93.1 | 96.3 | 92.6 | 102 | 106 | 93.8 | 96.1 | 102 | 99 | 98.9 | 88.5 | 103 | 106 | 108 | 110 |
